Test results taken from article PMC3257218 (Journal of Medicinal Chemistry, 2011).
Substitutions are numbered along the chain they refer to.

How the values were obtained:
human OCT2 = target: T1, human OCT2 (Homo sapiens, UniProt O15244, S270A); assay: ASP+ uptake inhibition in HEK293 cells stably expressing OCT2; conditions: for inhibition of OCT2 mediated transport: ASP+ 5 µM; for inhibition of renal OCT2 and MATE1 compared to hepatic OCT1: concentration-dependent inhibition, Figure 4C
T1 sequence (O15244 1-555 S270A): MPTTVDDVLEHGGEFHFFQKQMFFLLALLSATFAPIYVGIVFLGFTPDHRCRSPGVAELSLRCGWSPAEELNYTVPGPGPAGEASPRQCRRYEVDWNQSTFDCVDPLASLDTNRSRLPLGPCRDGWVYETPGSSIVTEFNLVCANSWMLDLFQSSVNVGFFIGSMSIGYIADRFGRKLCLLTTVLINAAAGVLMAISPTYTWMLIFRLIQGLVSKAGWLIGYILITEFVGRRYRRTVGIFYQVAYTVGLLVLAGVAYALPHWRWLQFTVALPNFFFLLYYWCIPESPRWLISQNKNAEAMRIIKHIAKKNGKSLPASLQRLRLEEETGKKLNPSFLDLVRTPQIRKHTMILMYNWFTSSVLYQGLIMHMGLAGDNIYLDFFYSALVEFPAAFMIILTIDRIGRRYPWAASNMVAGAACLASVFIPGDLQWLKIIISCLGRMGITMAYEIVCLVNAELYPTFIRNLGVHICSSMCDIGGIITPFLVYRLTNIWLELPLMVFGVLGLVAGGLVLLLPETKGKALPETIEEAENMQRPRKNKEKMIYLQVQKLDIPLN

MATE1 = target: T2, MATE1 (Homo sapiens, UniProt Q96FL8); assay: ASP+ uptake inhibition in HEK293 cells stably expressing MATE1; assay type: cell-based; conditions: for inhibition potency for MATE1 versus other transporters of the panel: concentration-dependent inhibition, Figure 4C
T2 sequence (Q96FL8 1-570): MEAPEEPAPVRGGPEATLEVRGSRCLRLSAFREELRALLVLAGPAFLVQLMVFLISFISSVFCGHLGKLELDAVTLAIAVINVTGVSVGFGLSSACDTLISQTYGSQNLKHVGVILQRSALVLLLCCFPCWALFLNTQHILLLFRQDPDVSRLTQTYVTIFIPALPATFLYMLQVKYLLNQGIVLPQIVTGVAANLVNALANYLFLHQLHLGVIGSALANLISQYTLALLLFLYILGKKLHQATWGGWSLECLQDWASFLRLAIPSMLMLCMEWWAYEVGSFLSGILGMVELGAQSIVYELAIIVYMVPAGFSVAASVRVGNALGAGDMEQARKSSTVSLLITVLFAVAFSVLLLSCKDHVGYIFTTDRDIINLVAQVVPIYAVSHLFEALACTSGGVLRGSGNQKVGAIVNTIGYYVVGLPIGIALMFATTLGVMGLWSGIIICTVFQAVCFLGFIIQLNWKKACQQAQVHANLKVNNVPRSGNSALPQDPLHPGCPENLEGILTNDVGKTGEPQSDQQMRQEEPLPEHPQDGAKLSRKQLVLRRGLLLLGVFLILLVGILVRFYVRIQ

OCT2-A270S = target: T3, OCT2-A270S (Homo sapiens, UniProt O15244); assay: ASP+ uptake inhibition in HEK293 cells stably expressing OCT2-A270S; assay type: cell-based; conditions: for affinity towards OCT2-A270S compared to reference protein: concentration-dependent inhibition, Figure 4C
T3 sequence (O15244 1-555): T1 sequence (O15244 1-555 S270A) with A270S

[1] = collected from the literature; cited from earlier work
MATE2-K = MATE2-K (Homo sapiens, UniProt Q86VL8); assay: ASP+ uptake inhibition in HEK293 cells stably expressing MATE2-K; assay type: cell-based
human OCT1 = target: T4, human OCT1 (Homo sapiens, UniProt O15245); conditions: screen at 20 µM
T4 sequence (O15245 1-554): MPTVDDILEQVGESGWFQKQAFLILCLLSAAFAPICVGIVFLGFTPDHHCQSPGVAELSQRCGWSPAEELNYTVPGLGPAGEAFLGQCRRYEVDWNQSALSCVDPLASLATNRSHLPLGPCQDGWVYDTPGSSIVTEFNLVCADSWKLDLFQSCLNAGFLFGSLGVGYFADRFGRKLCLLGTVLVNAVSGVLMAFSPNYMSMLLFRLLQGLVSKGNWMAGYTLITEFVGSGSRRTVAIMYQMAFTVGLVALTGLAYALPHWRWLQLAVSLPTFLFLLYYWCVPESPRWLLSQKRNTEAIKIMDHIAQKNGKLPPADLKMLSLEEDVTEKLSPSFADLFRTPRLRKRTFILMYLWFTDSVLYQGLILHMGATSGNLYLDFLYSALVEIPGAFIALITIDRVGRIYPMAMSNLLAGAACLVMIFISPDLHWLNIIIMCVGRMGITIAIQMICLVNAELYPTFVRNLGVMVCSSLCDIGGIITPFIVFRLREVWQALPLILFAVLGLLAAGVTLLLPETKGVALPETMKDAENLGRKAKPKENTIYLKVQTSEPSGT

Chain of MATE2-K (Q86VL8 1-566 isoform Q86VL8-3): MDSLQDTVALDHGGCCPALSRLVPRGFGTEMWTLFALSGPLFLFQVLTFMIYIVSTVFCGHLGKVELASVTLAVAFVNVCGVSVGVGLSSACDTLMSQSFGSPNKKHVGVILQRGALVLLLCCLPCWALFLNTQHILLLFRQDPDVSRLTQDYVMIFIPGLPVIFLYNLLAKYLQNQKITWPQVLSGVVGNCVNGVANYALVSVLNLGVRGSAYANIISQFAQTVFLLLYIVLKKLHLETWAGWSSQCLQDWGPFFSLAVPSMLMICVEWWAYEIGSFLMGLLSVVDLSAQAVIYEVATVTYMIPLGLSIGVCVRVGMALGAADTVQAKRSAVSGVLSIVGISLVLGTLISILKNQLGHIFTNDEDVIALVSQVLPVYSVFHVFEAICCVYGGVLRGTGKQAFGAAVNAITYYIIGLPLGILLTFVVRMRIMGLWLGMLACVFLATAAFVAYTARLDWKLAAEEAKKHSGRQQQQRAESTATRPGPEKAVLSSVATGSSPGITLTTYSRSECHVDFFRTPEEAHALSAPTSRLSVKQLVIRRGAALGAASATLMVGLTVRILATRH

`CN(C)c1ccc(C=Cc2cc[n+](C)cc2)cc1` [ASP^+, 4-(4-(dimethylamino)styryl)-N-methylpyridinium] showed a Km (human OCT2; read-out: Km of ASP+ transport, OCT2 specific uptake, HEK293 cells) of 36.4 ± 6.8 µM.
With `CN/C(=N\CCSCc1nc[nH]c1C)NC#N` [Cimetidine] the “inhibition potency for MATE1 versus other transporters of the panel” value (MATE1) was “considerably higher inhibition potency for MATE1 than for the other transporters in the panel”, the “inhibition of transporter activity” value (MATE1; inhibitor 500 µM) was “complete inhibition of transporter activity” and the “inhibition of OCT2 mediated transport” value (human OCT2; inhibitor 20 µM) was “partial”. For the same molecule, the “inhibition of OCT2 mediated transport” value (human OCT2; inhibitor 500 µM) was “complete inhibition of transporter activity” and the “inhibition of transporter activity” value (OCT2-A270S; inhibitor 500 µM) was “complete inhibition of transporter activity”.
For `CC(C)N(CCC(C(N)=O)(c1ccccc1)c1ccccn1)C(C)C` (stereo not drawn) [Disopyramide], the “PB, plasma protein binding” value [1] is given as 50%.
For `CN(C)CCCN1c2ccccc2CCc2ccccc21` [Imipramine], the “inhibition of renal OCT2 and MATE1 compared to hepatic OCT1” value (human OCT2) is listed as “preferential inhibition of the renal transporters OCT2 and MATE1 compared to the hepatic OCT1”, the “PB, plasma protein binding” value [1] is listed as 90% and the “affinity towards OCT2-A270S compared to reference protein” value (OCT2-A270S) is listed as “lower affinity towards the genetic variant OCT2-A270S than to the reference protein”.
In the case of `Cc1nccn1CC1CCc2c(c3ccccc3n2C)C1=O` (stereo not drawn) [Ondansetron], the “inhibition potency for MATE1 versus other transporters of the panel” value (MATE1) is reported as “considerably higher inhibition potency for MATE1 than for the other transporters in the panel”, the “inhibition of renal OCT2 and MATE1 compared to hepatic OCT1” value (human OCT2) is reported as “preferential inhibition of the renal transporters OCT2 and MATE1 compared to the hepatic OCT1” and the “inhibition of transporter activity” value (MATE2-K; inhibitor 250 µM) is reported as “complete inhibition of transporter activity”. For the same molecule, the “affinity towards OCT2-A270S compared to reference protein” value (OCT2-A270S) was “lower affinity towards the genetic variant OCT2-A270S than to the reference protein”.
For `COc1cc(C(=O)NS(=O)(=O)c2ccccc2C)ccc1Cc1cn(C)c2ccc(NC(=O)OC3CCCC3)cc12` [zafirlukast], the “inhibition in specificity screen (MATE1)” value (MATE1; screen at 20 µM) was “showed affinity for all four organic cation transporters”, the “inhibition in specificity screen (OCT2)” value (human OCT2; screen at 20 µM) was “showed affinity for all four organic cation transporters” and the “inhibition in specificity screen (MATE2-K)” value (MATE2-K; screen at 20 µM) was “showed affinity for all four organic cation transporters”. The “inhibition in specificity screen (OCT1)” value (human OCT1) was “showed affinity for all four organic cation transporters”.
